Experimental data reported in patent publication EP0738149B1 (priority 1994, dated 1995).
Like-named read-outs stand apart in the source and are kept apart here.

How the values were obtained:
[1] = tested on: rats; assay: Electrically kindled rat model of epilepsy, p.o.; format: in vivo; settings: po, read-out: ED50 (prevented seizures)
Text: The rat electrical kindling model of epilepsy has been known to show efficacy of antiepileptic agents against complex partial seizures that evolve into generalized motor seizures. In these tests, rats were electrically stimulated via corneal electrodes twice daily for approximately 5 days and then once daily for an additional 10 days. Once the seizure criteria, as described by R.J. Racine, et al., Electroenceph. Clin. Neurophysiol. 32: 281-294 (1972), were met, the test substance was administered p.o. to rats, and the rat electrically stimulated, and observed for the presence or absence of a seizure.

[2] = tested on: mice; assay: Maximal electroshock (MES) model in mice, i.p.;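 also: Electroshock-induced convulsion model serving to demonstrate antiepileptic efficacy against generalized and partial seizures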; format: in vivo; settings: Mus musculus, ip, Table 15
[3] = tested on: rats; settings: Rattus norvegicus, po, read-out: RATS scMet ED50
[4] = tested on: rats; assay: Closed head injury in rats: brain oedema (water content), Experiments 4A-4E; format: in vivo; settings: Exp 4A; relative to normal brain water content of 78.5 %
Protocol: After the second evaluation of motor function, the animals were sacrificed and the brains were removed. A piece of tissue was weighed to yield a wet weight(WW), then dried in an oven for 24 hours at 95C and re-weighed to yield a dry weight(DW). Percentage water content in the tissue was calculated as (WW-DW)x100/WW.

[5] = tested on: rats; assay: Closed head injury in rats: motor function (Neurological Severity Status), Experiments 4A-4E
[6] = tested on: hypoxic rat; assay: α-MpT-induced hypokinesia in hypoxic rat (locomotor activity), Experiments 1A-1C; format: in vivo; settings: Mean ± SEM
Protocol: Experiment 1A. Wistar male rats, 15-19 month-old, were exposed to a single hypoxic episode which is assumed to decrease the level of dopamine in the brain. […] The drugs were administered by gavage, using a special syringe equipped with rounded tip that could be directed into the stomach. The dose was contained in 0.3-0.5 mL of distilled water. The rats were pretreated for 70-80 days with daily doses of the test drugs and received intra-peritoneal (i.p.) α-MpT (α-methyl-p-tyrosine) at a dose of 100mg/kg in 0.3-0.5 mL saline. Controls received saline. α-MpT is assumed to inhibit the formation of L-Dopa from tyrosine and, consequently the formation of dopamine itself. Lack of central dopamine is expressed as hypokinesia. Following the injection of α-MpT, motor activity was recorded for the duration of 10 hours. Locomotion scores were taken in seven fully-computerized cages (26x25cm) having a grid of infra-red beams at 4 cm-intervals. Crossing of a beam initiated an electric signal which was fed into a computer. The number of crossings over a given period provided a measure of locomotion. The records gave two data categories: (a) "small movements" originating in stationary activities such as grooming and scratching and (b) "big movements" originating in ambulation and recorded as the simultaneous crossing of more than two beams."Total movements" include both categories. Counts of motor activity in the presence of α-MpT were related as percent with respect to counts in its absence in the corresponding control group (unlesioned or hypoxia-lesioned). Motor activity counts of drug-treated rats were related to the hypoxia saline-treated as 100%. All behavioral tests were performed 90-120 min. after administration of the last dose of the test compound.
Experiment 1B. […] The drugs were given i.p. • (3) Duration of the treatment: 21 days. • (4) Dose of α-MpT: 70 mg/Kg.

[7] = Exp 4A, 0.1mg/kg i.p. at 0,4,8 and 12 hours post-trauma
[8] = Exp 4B, 0.1mg/kg once a day for 14 days
[9] = Exp 1A, 0.5mg/kg/Day gavage 70-80 days, α-MpT 100mg/kg i.p., Hour 1
[10] = Exp 1A, 0.5mg/kg/Day gavage 70-80 days, α-MpT 100mg/kg i.p., Hour 2
[11] = Exp 1A, 0.5mg/kg/Day gavage 70-80 days, α-MpT 100mg/kg i.p., Hour 3
[12] = Exp 1A, 0.5mg/kg/Day gavage 70-80 days, α-MpT 100mg/kg i.p., Hour 4
[13] = Exp 1A, 0.5mg/kg/Day gavage 70-80 days, α-MpT 100mg/kg i.p., Hour 5
[14] = Exp 1A, 0.5mg/kg/Day gavage 70-80 days, α-MpT 100mg/kg i.p., Hour 7
[15] = Exp 1A, 0.5mg/kg/Day gavage 70-80 days, α-MpT 100mg/kg i.p., Hour 8
[16] = Exp 1A, 0.5mg/kg/Day gavage 70-80 days, α-MpT 100mg/kg i.p., Hour 9
[17] = Exp 1A, 0.5mg/kg/Day gavage 70-80 days, α-MpT 100mg/kg i.p., Hour 10
[18] = Exp 1B, 0.3 mg/Kg daily i.p. 21 days, α-MpT 70 mg/Kg, Hour 1
[19] = Exp 1B, 0.3 mg/Kg daily i.p. 21 days, α-MpT 70 mg/Kg, Hour 2
[20] = Exp 1B, 0.3 mg/Kg daily i.p. 21 days, α-MpT 70 mg/Kg, Hour 3
[21] = Exp 1B, 0.3 mg/Kg daily i.p. 21 days, α-MpT 70 mg/Kg, Hour 4
[22] = Exp 1B, 0.3 mg/Kg daily i.p. 21 days, α-MpT 70 mg/Kg, Hour 5
[23] = Exp 1B, 0.3 mg/Kg daily i.p. 21 days, α-MpT 70 mg/Kg, Hour 6
[24] = Exp 1B, 0.3 mg/Kg daily i.p. 21 days, α-MpT 70 mg/Kg, Hour 7
[25] = Exp 1B, 0.3 mg/Kg daily i.p. 21 days, α-MpT 70 mg/Kg, Hour 8
[26] = Exp 1B, 0.3 mg/Kg daily i.p. 21 days, α-MpT 70 mg/Kg, Hour 9
[27] = Exp 1B, 0.3 mg/Kg daily i.p. 21 days, α-MpT 70 mg/Kg, Hour 10

CC(=O)N[C@@H]1CCc2ccccc21 [Example 18, (R)-N-Acetyl-1-aminoindan]
ED50 [1]: 24.6 mg/kg
ED50 [2]: 31 mg/kg
ED50 [3]: > 250 mg/kg

N[C@@H]1CCc2ccccc21 [R-AI, (R)-1-aminoindan]
reduction in trauma-induced oedema [4]: 50%
NSS 1hr [5, 7]: 16.8
NSS 24hr [5, 7]: 8.3
ΔNSS ([5]; Exp 4A, 0.1mg/kg i.p. at 0,4,8 and 12 hours post-trauma, change 1 hour to 24 hours): 8.5±0.5
NSS at 1hr [5, 8]: 17.7±0.5
ΔNSS at 24hr [5, 8]: 7.3±0.8
ΔNSS at 48hr [5, 8]: 9.3±0.8
ΔNSS at 7d [5, 8]: 11.8±0.5
ΔNSS at 14d [5, 8]: 14.0±0.4
NSS 1hr ([5]; Exp 4C, 0.03 mg/kg): 16.3
NSS 24hr ([5]; Exp 4C, 0.03 mg/kg): 10.4
ΔNSS ([5]; Exp 4C, 0.03 mg/kg): 5.9±0.3
NSS 1hr ([5]; Exp 4C, 0.1 mg/kg): 16.2
NSS 24hr ([5]; Exp 4C, 0.1 mg/kg): 10.4
ΔNSS ([5]; Exp 4C, 0.1 mg/kg): 5.8±0.4
NSS 1hr ([5]; Exp 4C, 0.3 mg/kg): 16.6
NSS 24hr ([5]; Exp 4C, 0.3 mg/kg): 8.5
ΔNSS ([5]; Exp 4C, 0.3 mg/kg): 8.1±0.5
NSS 1hr ([5]; Exp 4C, 1.0 mg/kg): 16.8
NSS 24hr ([5]; Exp 4C, 1.0 mg/kg): 8.8
ΔNSS ([5]; Exp 4C, 1.0 mg/kg): 8.0±0.5
NSS 1hr ([5]; Exp 4C, 3.0 mg/kg): 16.4
NSS 24hr ([5]; Exp 4C, 3.0 mg/kg): 7.8
ΔNSS ([5]; Exp 4C, 3.0 mg/kg): 8.6±0.7
ΔNSS ([5]; Exp 4D, 1mg/kg, times of administration 0): 8.8±10.8
ΔNSS ([5]; Exp 4D, 1mg/kg, times of administration 0 + 4h): 8.0±1.0
ΔNSS ([5]; Exp 4D, 1mg/kg, times of administration 0 + 8h): 8.0±0.1
ΔNSS ([5]; Exp 4D, 1mg/kg, times of administration 0 + 12h): 8.7±0.6
ΔNSS ([5]; Exp 4D, 1mg/kg, times of administration 0,4,8,12h): 8.2±0.7
ΔNSS ([5]; Exp 4E, 1mg/kg given + 1h post head trauma): 8.4±0.6
ΔNSS ([5]; Exp 4E, 1mg/kg given + 2h post head trauma): 7.0±0.5
ΔNSS ([5]; Exp 4E, 1mg/kg given + 3h post head trauma): 7.4±0.5

C#CCN(C)[C@H](C)Cc1ccccc1 [deprenyl]
Locomotor activity after α-MpT treatment, recorded as big movements [6, 9]: 61 ± 15%
Locomotor activity after α-MpT treatment, recorded as total movements [6, 9]: 88 ± 23%
Locomotor activity after α-MpT treatment, recorded as big movements [6, 10]: 103 ± 22%
Locomotor activity after α-MpT treatment, recorded as total movements [6, 10]: 131 ± 30%
Locomotor activity after α-MpT treatment, recorded as big movements [6, 11]: 184 ± 39%
Locomotor activity after α-MpT treatment, recorded as total movements [6, 11]: 141 ± 26%
Locomotor activity after α-MpT treatment, recorded as big movements [6, 12]: 85 ± 34%
Locomotor activity after α-MpT treatment, recorded as total movements [6, 12]: 191 ± 45%
Locomotor activity after α-MpT treatment, recorded as big movements [6, 13]: 171 ± 61%
Locomotor activity after α-MpT treatment, recorded as total movements [6, 13]: 229 ± 40%
Locomotor activity after α-MpT treatment, recorded as big movements ([6]; Exp 1A, 0.5mg/kg/Day gavage 70-80 days, α-MpT 100mg/kg i.p., Hour 6): 65 ± 17%
Locomotor activity after α-MpT treatment, recorded as big movements [6, 14]: 96 ± 29%
Locomotor activity after α-MpT treatment, recorded as total movements [6, 14]: 204 ± 7%
Locomotor activity after α-MpT treatment, recorded as big movements [6, 15]: 91 ± 40%
Locomotor activity after α-MpT treatment, recorded as total movements [6, 15]: 131 ± 23%
Locomotor activity after α-MpT treatment, recorded as big movements [6, 16]: 84 ± 23%
Locomotor activity after α-MpT treatment, recorded as total movements [6, 16]: 137 ± 21%
Locomotor activity after α-MpT treatment, recorded as big movements [6, 17]: 29 ± 10%
Locomotor activity after α-MpT treatment, recorded as total movements [6, 17]: 116 ± 22%
Locomotor activity after α-MpT treatment, recorded as big movements [6, 18]: 70 ± 10%
Locomotor activity after α-MpT treatment, recorded as total movements [6, 18]: 68 ± 9%
Locomotor activity after α-MpT treatment, recorded as big movements [6, 19]: 91 ± 19%
Locomotor activity after α-MpT treatment, recorded as total movements [6, 19]: 95 ± 11%
Locomotor activity after α-MpT treatment, recorded as big movements [6, 20]: 85 ± 19%
Locomotor activity after α-MpT treatment, recorded as total movements [6, 20]: 126 ± 22%
Locomotor activity after α-MpT treatment, recorded as big movements [6, 21]: 88 ± 23%
Locomotor activity after α-MpT treatment, recorded as total movements [6, 21]: 118 ± 20%
Locomotor activity after α-MpT treatment, recorded as big movements [6, 22]: 87 ± 11%
Locomotor activity after α-MpT treatment, recorded as total movements [6, 22]: 83 ± 24%
Locomotor activity after α-MpT treatment, recorded as big movements [6, 23]: 67 ± 8%
Locomotor activity after α-MpT treatment, recorded as total movements [6, 23]: 78 ± 9%
Locomotor activity after α-MpT treatment, recorded as big movements [6, 24]: 62 ± 9%
Locomotor activity after α-MpT treatment, recorded as total movements [6, 24]: 56 ± 7%
Locomotor activity after α-MpT treatment, recorded as big movements [6, 25]: 70 ± 9%
Locomotor activity after α-MpT treatment, recorded as total movements [6, 25]: 85 ± 13%
Locomotor activity after α-MpT treatment, recorded as big movements [6, 26]: 132 ± 24%
Locomotor activity after α-MpT treatment, recorded as total movements [6, 26]: 111 ± 12%
Locomotor activity after α-MpT treatment, recorded as big movements [6, 27]: 54 ± 13%
Locomotor activity after α-MpT treatment, recorded as total movements [6, 27]: 61 ± 12%
